# pIC50: −log10 of the molar value.
# Biological target: muscarinic acetylcholine receptors
# Assay: inhibition of specific binding of ^3 H-Oxotremorine-M (^3 H-Oxo) to rat cortex
# Parameters: species or system rat (male Wistar)
# Details: ^3 H-Oxotremorine 1.0 nM, 30 min, 25° C.
# Source text: The pharmacological properties of the compounds of the invention can be illustrated by determining their capability to inhibit the specific binding of ^3 H-Oxotremorine-M (^3 H-Oxo). Birdsdall N. J. M., Hulme E. C., and Burgen A. S. V. (1980). "The Character of Muscarinic Receptors in Different Regions of the Rat Brain". Proc. Roy. Soc. London (Series B) 207,1.
# ^3 H-Oxo labels muscarinic receptor in the CNS (with a preference for agonist domains of the receptors). Three different sites are labeled by ^3 H-Oxo. […] Using the present experimental conditions only the high and medium affinity sites are determined.
# The inhibitory effects of compounds on ^3 H-oxo binding reflects the affinity for muscarinic acetylcholine receptors.
# All preparations are performed at 0°-4° C. unless otherwise indicated. Fresh cortex (0.1-1 g) from male Wistar rats (150-250 g) is homogenized for 5-10 s in 10 mL […] Hepes pH: 7.4, with an Ultra-Turrax homogenizer. The homogenizer is rinsed with 10 mL of buffer and the combined suspension centrifuged for 15 min. at 40,000×g. The pellet is washed three times with buffer. In each step the pellet is homogenized as before in 2×10 mL of buffer and centrifuged for 10 min. at 40,000×g.
# The final pellet is homogenized in 20 mM Hepes pH: 7.4 (100 mL per g of original tissue) and used for binding assay. Aliquots of 0.5 mL is added 25 μL of test solution and 25 μL of ^3 H-Oxotremorine (1.0 nM, final concentration) mixed and incubated for 30 min. at 25° C. Non-specific binding is determined in triplicate using arecoline (1 μg/mL, final concentration) as the test substance. After incubation samples are added 5 mL of ice-cold buffer and poured directly onto Whatman GF/C glass fiber filters under suction and immediately washed 2 times with 5 mL of ice-cold buffer. The amount of radioactivity on the filters are determined by conventional liquid scintillation counting. Specific binding is total binding minus non specific binding.
# Test substances are dissolved in 10 mL water (if necessary heated on a steam-bath for less than 5 min.) at a concentration of 2.2 mg/mL. 25-75% inhibition of specific binding must be obtained before calculation of IC50. The test value will be given as IC50 (the concentration (nM) of the test substance which inhibits the specific binding of ^3 H-oxo by 50%).
# IC50 =(applied test substance concentration)×(Cx /Co
# where Co is specific binding in control assays and Cx is the specific binding in the test assay. (The calculations assume normal mass-action kinetics).
row,Structure (SMILES),pIC50
1,"CCCCCSc1nccnc1OC1CN2CCC1CC2 (racemic) [Compound 7, (+/-)-3-Pentylthio-2-(1-azabicyclo[2.2.2]octyl-3-oxy)pyrazine]",7.80
2,"c1cnc(OC2CN3CCC2CC3)cn1 (racemic) [Compound 8, (+/-)-2-(1-Azabicyclo[2.2.2]octyl-3-oxy)pyrazine]",5.98
3,"CCCCCOc1nccnc1OC1CN2CCC1CC2 (racemic) [Compound 9, (+/-)-3-(1-Pentyloxy)-2-(1-azabicyclo[2.2.2]octyl-3-oxy)pyrazine]",7.44
4,"COc1nccnc1OC1CN2CCC1CC2 (racemic) [Compound 10, (+/-)-3-Methoxy-2-(1-azabicyclo[2.2.2]octyl-3-oxy)pyrazine]",6.45
5,CCOc1nccnc1OC1CN2CCC1CC2 (racemic) [Compound 11],7.25
6,"CCCCCCSc1nccnc1OC1CN2CCC1CC2 (racemic) [Compound 12, (+/-)-3-(1-Hexylthio)-2-(1-azabicyclo[2.2.2]octyl-3-oxy)pyrazine]",7.60
7,"CSc1nccnc1OC1CN2CCC1CC2 (racemic) [Compound 13, (+/-)-3-Methylthio-2-(1-azabicyclo[2.2.2]octyl-3-oxy)pyrazine]",7.13
8,"CCSc1nccnc1OC1CN2CCC1CC2 (racemic) [Compound 14, (+/-)-3-Ethylthio-2-(1-azabicyclo[2.2.2]octyl-3-oxy)pyrazine]",7.59
9,CCCSc1nccnc1OC1CN2CCC1CC2 (racemic) [Compound 15],7.85
10,CCCCCCCSc1nccnc1OC1CN2CCC1CC2 (racemic) [Compound 16],7.41
11,"Clc1nccnc1O[C@H]1CN2CCC[C@@H]1C2 (relative stereo) [Compound 19, 3-Chloro-2-[endo-(+,-)-6-(1-azabicyclo[3.2.1]octyloxy)]-pyrazine]",6.92
12,"Cc1nccnc1O[C@H]1CN2CCC[C@@H]1C2 (relative stereo) [Compound 20, 3-Methyl-2-[endo-(+,-)-6-(1-azabicyclo[3.2.1]octyloxy)]-pyrazine]",6.61
13,"Clc1cncc(O[C@H]2CN3CCC[C@@H]2C3)n1 (relative stereo) [Compound 22, 6-Chloro-2-[endo-(+,-)-6-(1-azabicyclo[3.2.1]octyloxy)]-pyrazine]",6.85
14,"CCCCOc1nccnc1O[C@H]1CN2CCC[C@@H]1C2 (relative stereo) [Compound 23, 3-(1-butyloxy)-2-[endo-(+,-)-6-(1-azabicyclo[3.2.1]octyloxy)]-pyrazine]",8.31
15,"CCCCSc1nccnc1O[C@H]1CN2CCC[C@@H]1C2 (relative stereo) [Compound 24, 3-(1-butylthio)-2-[endo-(+,-)-6-(1-azabicyclo[3.2.1]octyloxy)]-pyrazine]",8.66
16,"CCCSc1nccnc1O[C@H]1CN2CCC[C@@H]1C2 (relative stereo) [Compound 29, (±)-endo-2-Propylthio-3-(1-azabicyclo[3.2.1]octyl-6-oxy)pyrazine]",8.77
17,"CCCCCSc1nccnc1O[C@H]1CN2CCC[C@@H]1C2 (relative stereo) [Compound 30, (±)-endo-2-Pentylthio-3-(1-azabicyclo[3.2.1]octyl-6-oxy)pyrazine]",8.36
18,"CC(C)CSc1nccnc1O[C@H]1CN2CCC[C@@H]1C2 (relative stereo) [Compound 31, (±)-endo-2-(2-Methylpropylthio)-3-(1-azabicyclo[3.2.1]octyl-6-oxy)-pyrazine]",8.47
19,"CCSc1nccnc1O[C@H]1CN2CCC[C@@H]1C2 (relative stereo) [Compound 32, (±)-endo-2-Ethylthio-3-(1-azabicyclo[3.2.1]octyl-6-oxy)pyrazine]",8.41

row,Structure (SMILES),pIC50
1,"FC(F)(F)CSc1nccnc1O[C@H]1CN2CCC[C@@H]1C2 (relative stereo) [Compound 33, (±)-endo-2-(2,2,2,-Trifluoroethylthio)-3-(1-azabicyclo[3.2.1]octyl-6-oxy)pyrazine]",8.82
2,"C/C=C/CSc1nccnc1O[C@H]1CN2CCC[C@@H]1C2 (relative stereo) [Compound 34, (±)-endo-2-(trans-2-Butenylthio)-3-(1-azabicyclo[3.2.1]octyl-6-oxy)pyrazine]",8.70
3,"FC(F)(F)CCCSc1nccnc1O[C@H]1CN2CCC[C@@H]1C2 (relative stereo) [Compound 35, (±)-endo-2-(4,4,4-Trifluorobutylthio)-3-(1-azabicyclo[3.2.1]octyl-6-oxy)pyrazine]",8.49
4,"C=CCSc1nccnc1O[C@H]1CN2CCC[C@@H]1C2 (relative stereo) [Compound 36, (±)-endo-2-(2-propenylthio)-3-(1-azabicyclo[3.2.1]octyl-6-oxy)pyrazine]",9.47
5,"CC(C)CCSc1nccnc1O[C@H]1CN2CCC[C@@H]1C2 (relative stereo) [Compound 37, (±)-endo-2-(3-Methylbutylthio)-3-(1-azabicyclo[3.2.1]octyl-6-oxy)pyrazin]",8.89
6,"FC(F)(F)Oc1ccc(CSc2nccnc2O[C@H]2CN3CCC[C@@H]2C3)cc1 (relative stereo) [Compound 38, (±)-endo-2-(4-Trifluoromethoxybenzylthio)-3-(1-azabicyclo[3.2.1]octyl-6-oxy)pyrazine]",8.21
7,"CCCSc1cncc(O[C@H]2CN3CCC[C@@H]2C3)n1 (relative stereo) [Compound 39, (±)-endo-2-Propylthio-6-(1-azabicyclo[3.2.1]octyl-6-oxy)pyrazine]",8.00
8,"FC(F)(F)CSc1cncc(O[C@H]2CN3CCC[C@@H]2C3)n1 (relative stereo) [Compound 40, (±)-endo-2-(2.2.2-Trifluoroethylthio)-6-(1-azabicyclo[3.2.1]octyl-6-oxy)pyrazine]",7.22
9,"COCCSc1nccnc1O[C@H]1CN2CCC[C@@H]1C2 (relative stereo) [Compound 41, (±)-endo-2-(2-methoxyethylthio)-3-(1-azabicyclo[3.2.1octyl-6-oxy)pyrazine]",8.49
10,"C(=Cc1ccccc1)CSc1nccnc1O[C@H]1CN2CCC[C@@H]1C2 (relative stereo) [Compound 42, (±)-endo-2-(3-Phenyl-2-propenylthio)-3-(1-azabicyclo[3.2.1]octyl-6-oxy)pyrazine]",8.04
11,"CC(C)=CCCSc1nccnc1O[C@H]1CN2CCC[C@@H]1C2 (relative stereo) [Compound 43, (±)-endo-2-(4-Methyl-3-pentenylthio)-3-(1-azabicyclo[3.2.1]octyl-6-oxy)pyrazine]",8.09
12,CCCCSc1nccnc1OCCN(C)C [Compound 17],7.77
13,"CCCCSc1nccnc1OCC[N+](C)(C)C [Compound 18, 3-(1-Butylthio)-2-(2-(trimethylamino)ethoxy)pyrazine iodide]",7.68
14,"c1cnc(O[C@H]2CN3CCC[C@@H]2C3)cn1 [Compound 21, 2-[endo-(+,-)-6-(1-azabicyclo[3.2.1]octyloxy)]-pyrazine]",7.59
15,"CN1[C@@H]2CC[C@H]1C[C@@H](Oc1cnccn1)C2 [Compound 25, endo-(8-methyl-8-azabicyclo[3.2.1]octyl-3-oxy)pyrazine]",6.74
16,"CN(C)CCOc1cnccn1 [Compound 26, 2-(2-Dimethylaminoethoxy)pyrazine]",< 6.00
17,"C[N+](C)(C)CCOc1cnccn1 [Compound 27, 2-(2-Trimethylaminoethoxy)pyrazine iodide]",< 6.00
18,"CN1CCC[C@H]1COc1cnccn1 [Compound 28, (S)-2-(1-Methyl-2-pyrrolidinylmethoxy)pyrazine]",< 5.00

# Tested on: dopamine receptors
# Assay: not given
# Details: only at the 5-HT1A and dopamine receptors; cited from earlier work
row,Structure (SMILES),interaction at dopamine receptors
1,O=C1CC2(CCCC2)CC(=O)N1CCCCN1CCN(c2ncccn2)CC1 [Buspirone],reasonable potency

# Tested on: M1-sites (muscarinic receptors)
# Assay: not given
# Details: cited from earlier work
row,Structure (SMILES),selectivity for M1-sites
1,CN1CCN(CC(=O)N2c3ccccc3C(=O)Nc3cccnc32)CC1 [pirenzepine],selective for M1 -sites

# Tested on: 5-HT1A receptor
# Assay: not given
# Details: only at the 5-HT1A and dopamine receptors; cited from earlier work
row,Structure (SMILES),interaction at 5-HT1A receptors
1,O=C1CC2(CCCC2)CC(=O)N1CCCCN1CCN(c2ncccn2)CC1 [Buspirone],reasonable potency

# Reference: patent publication US5888999A, “Method for treating anxiety with muscarinic cholinergic receptor agonists” (Eli Lilly and Company, priority 1997, dated 1999)
